Structures can show the parent of a compound that is named as a salt. Bounds are passed on as bounds.

In experiment [1] the target is T1, 5HT1A receptor (Rattus norvegicus, UniProt P19327).
T1 sequence (P19327 1-422): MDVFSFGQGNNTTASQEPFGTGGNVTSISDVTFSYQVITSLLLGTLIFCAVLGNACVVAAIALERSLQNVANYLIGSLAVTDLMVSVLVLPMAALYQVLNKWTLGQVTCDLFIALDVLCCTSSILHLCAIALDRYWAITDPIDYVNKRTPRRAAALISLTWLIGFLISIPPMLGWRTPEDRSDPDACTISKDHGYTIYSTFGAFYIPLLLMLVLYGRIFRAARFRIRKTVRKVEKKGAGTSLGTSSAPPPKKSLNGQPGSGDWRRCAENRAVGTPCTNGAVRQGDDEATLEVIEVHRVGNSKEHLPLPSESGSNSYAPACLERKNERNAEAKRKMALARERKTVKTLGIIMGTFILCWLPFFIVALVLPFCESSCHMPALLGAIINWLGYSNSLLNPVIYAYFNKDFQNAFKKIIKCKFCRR
The experiment is described as follows: In-Vitro inhibition of 5HT1A receptor binding (3H-8-OH-DPAT). Further details: species or system rat (male Wistar). Particulars: 3H-8-OH-DPAT 1 nM, rat frontal cortex and hippocampus, 37° C., 10 min. How it is done: In-Vitro inhibition of 5HT1A receptor binding
Radioactive-labelled ligand ^3 H-80H-DPAT is incubated with isolated cell-membrane fragments at 37° C. for a given period of time. Following completed incubation, the incubate is filtered through GF/F filters which are rinsed after filtration to remove unspecifically adhered radioactivity. As opposed to low-molecular compounds, membrane fragments are not rinsed through the filters, the radioactivity bound to the filters indicates the amount of ligand bound specifically as well as nonspecifically to the membranes.
Male Wistar rats, 150-200 g are decapitated, and frontal cortex (approx. 200 mg) and hippocampus (approx. 70 mg) homogenized in 2×10 ml ice-cold DPAT buffer for 20 sec. applying polytron kinematica setting 6. Centrifuged at 20,000 rpm for 10 min. at 4° C. The pellet is transferred to 2×10 ml ice-cold DPAT buffer, homogenized for 20 sec. and preincubated for 10 min. at 37° C. Centrifuged at 20,000 rpm for 10 min. at 4° C. Final pellet added to 125×vol. of same buffer with 10 μM paragylin added (ex. 270 mg tissue in 33.75 ml DPAT buffer containing paragylin). Prepared fresh every day. Use within 30 minutes.
1,250 μl tissue 25 μl ^3 H-80H-DPAT (1 nM) 25 μl test substance/H2 O/blind serotonin (10 μM)
Incubation at 37° C. for 10 min.--at 10 sec. intervals. To the tubes is added 10 ml ice-cold 0.9% NaCl. Filtration through GF/F filters (use gloves). This procedure is repeated. Filters are placed in counting vials and 4 ml optiflow added (prepare in fume cupboard, use gloves). Counted at window 0-19 of the beta- counter (Pachard). Note that receptor box and lid are rinsed thoroughly in H2 O after use to avoid contamination. Further the analytical site is cleaned carefully every day.
Dissolved in H2 O, EtOH, MeOH or DMSO and further diluted in H2 O. The DPAT binding will stand concentrations of up to approx. 5% of these solvents without affecting the binding. Most stock solutions are stable at 4° C. Attention should, however, be paid to any precipitation, change in colour etc. Test-substance dilutions are always prepared fresh every day. When weighing out test substances, it is attempted to weigh out approx. 1 mg of substance. Less than 0.8 mg must never be weighed out and only infrequently more than 2 mg (for economy reasons) dependent, however on conc./assay.

Experiment [2] concerns the target T2, 5HT2 receptor (Rattus norvegicus, UniProt P14842).
T2 construct: incubated with isolated cell-membrane fragments; from tissue; host or cells: frontal cortex of male Wistar rats (membranes)
The experiment is described as follows: In Vitro Inhibition of 5HT2-Receptor Binding (3H-Ketanserine). Set-up: species or system rat (male Wistar). Particulars: 3H-Ketanserine 0.4 nM, rat frontal cortex, 37° C., 15 min. The protocol: In Vitro Inhibition of 5HT2 -Receptor Binding
Radioactive-labelled ligand ^3 H-Ketanserine is incubated with isolated cell-membrane fragments at 37° C. for a given period of time. Following completed incubation, the incubate is filtered through GF/B filters which are rinsed after filtration to remove unspecifically adhered radioactivity. As opposed to low-molecular compounds, membrane fragments are not rinsed through the filters, the radioactivity bound to the filters indicates the amount of ligand bound specifically as well as non-specifically to the membranes.
The preparation is made in ice bath. Polytron kinematica is rinsed with milli-Q-H2 O before and after use. Male Wistar rats, 150-200 g are decapitated. Frontal cortex is removed quickly and weighed (approx. 200 mg). Frontal cortex is added to centrifuging vial containing 10 ml ice-cold D2 buffer. Homogenization applying polytron kinematica (homogenizer) setting 6 for 20 sec. The homogenizer is rinsed with 10 ml D2 buffer in another centrifuging vial. The 10 ml rinsing buffer is added to the tissue vial. Centrifuged at 18,000 rpm for 10 min. at 4° C. Final pellet is transferred to 125×vol. of same buffer. (Ex. 200 mg in 25 ml D2 buffer). Can be stored for approx. 30 min. at 0° C.
25 μl ^3 H-Ketanserine (0.4 nM)
25 μl test substance/H2 O/blind cyproheptadine (2 μM)
Incubation for 15 min. at 37° C.
10 ml ice-cold 0.9% NaCl is added to the tubes. Filtration is performed through GF/B filters (use gloves). This procedure is repeated. Filters are placed in counting vials, and 4 ml opti- flour is added (prepare in fume cupboard, use gloves). Counting at window 0-19 of the beta-counter (Pachard). Note that receptor box and lid are rinsed thoroughly in H2 O after use to avoid contamination. Further the analytical site is cleaned carefully every day.
Dissolved in H2 O, EtOH, MeOH or DMSO and further diluted in H2 O. The 5HT2 binding will stand concentrations of up to approx. 5% of these solvents without affecting the binding. Most stock solutions are stable at 4° C. Attention should, however, be paid to any precipitation, change in colour etc. Test-substance dilutions are always made fresh every day. When weighing out test substance, it is attempted to weigh out approx. 1 mg of substance. Less than 0.8 mg must never be weighed out and only infrequently more than 2 mg (for economy reasons) dependent, however, on conc./assay.

T2 sequence (P14842 whole entry, the tested form may be a part): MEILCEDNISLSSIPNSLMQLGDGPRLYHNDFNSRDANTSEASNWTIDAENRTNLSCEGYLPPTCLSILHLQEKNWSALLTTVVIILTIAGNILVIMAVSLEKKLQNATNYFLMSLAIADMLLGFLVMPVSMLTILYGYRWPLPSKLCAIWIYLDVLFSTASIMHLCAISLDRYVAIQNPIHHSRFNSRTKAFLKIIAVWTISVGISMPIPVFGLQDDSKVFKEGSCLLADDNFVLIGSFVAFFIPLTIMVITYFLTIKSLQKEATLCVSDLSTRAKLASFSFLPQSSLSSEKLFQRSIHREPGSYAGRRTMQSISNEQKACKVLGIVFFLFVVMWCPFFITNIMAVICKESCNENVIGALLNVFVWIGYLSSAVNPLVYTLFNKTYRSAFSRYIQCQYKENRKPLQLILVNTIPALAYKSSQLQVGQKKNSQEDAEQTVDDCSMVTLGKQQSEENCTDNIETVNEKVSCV

Take `COc1ccc2cccc(N3CCN(CCCOC(=O)Nc4ccc5c(c4)OCO5)CC3)c2c1` [Example 34, 1-(7-Methoxy-1-naphthyl)-4-[3-(3,4-methylenedioxyphenylcarbamoyloxy)propyl]piperazine, HCl]: the figures for the concentration for half-maximal inhibition (IC50) in experiment [1] and in experiment [2] were 1.6 nM and 13 nM, respectively.
On to `O=C(Nc1ccc2ncsc2c1)OCCCN1CCN(c2ccc(Cl)cc2)CC1` [Example 19, 4-(4-Chlorophenyl)-1-[3-(6-benzothiazolylcarbamoyloxy)propyl]piperazine, hydrochloride], for which the IC50 is above 1000 nM in experiment [1] and 22 nM in experiment [2].
The like results for `COc1cc(NC(=O)OCCCN2CCN(c3ccc(F)cc3)CC2)cc(OC)c1OC` [Example 8, 4-(4-Fluorophenyl)-1-[3-(3,4,5-trimethoxyphenylcarbamoyloxy)propyl]piperazine, hydrochloride] were, in that order, above 1000 nM and 10 nM.
As to `COc1cc(NC(=O)OCCCN2CCN(c3ccccc3Cl)CC2)cc(OC)c1OC.Cl` [Example 3, 4-(2-Chlorophenyl)-1-[3-(3,4,5-trimethoxyphenylcarbamoyloxy)propyl]piperazine, hydrochloride], the figures for the IC50 in experiment [1] and in experiment [2] were above 300 nM and 7.5 nM, respectively.

The values are drawn from patent US5246935A, “Piperazinyl derivatives and methods of treating central nervous system ailments relating to the 5-HT2 receptor system” (Novo Nordisk A/S, priority 1990, dated 1993).
